≈ marks a conversion by molar mass, not a printed value. Read-outs that look alike come from different tables or passages of the source.
Columns and labels:
VZV strain Ellen = experiment: VZV antiviral (ELISA) assay; assay type: cell-based; details: for IC50: read-out: IC50 (ug/ml) VZV
In short: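 HFF cells infected with VZV Ellen at multiplicity below 0.1 overnight, then mixed infected/uninfected cells seeded with compound in DMEM/2% FBS and incubated three days at 37°C, 5% CO2.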

[1] = test system: HCMV recombinant mutant virus whose genome contains the prokaryotic beta-glucuronidase gene; experiment: microbe, parasite or virus in culture; assay type: cell-based, human cytomegalovirus; details: Human betaherpesvirus 5, Fibroblast
In short: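 Human foreskin fibroblasts infected with HCMV recombinant carrying beta-glucuronidase under a viral promoter (e.g. RV145) in presence of compound. At 96 h post-infection, lysates assayed for beta-glucuronidase by colorimetric or fluorogenic substrate as replication readout; IC50 estimated from varying compound amounts.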

HSV- I = experiment: HSV antiviral (ELISA) assay; assay type: cell-based; details: read-out: IC50 (ug/ml) HSV
In short: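 Vero cells in DMEM with 2% FBS treated with compound 30 min before HSV-1 infection (MOI 0.006), then incubated ~24 h at 37°C. Viral replication measured by ELISA against glycoprotein D with β-galactosidase-linked secondary and fluorogenic substrate (ex 365/em 450 nm); IC50 relative to untreated fluorescence.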

[2] = Human alphaherpesvirus 3, HFF, read-out: % inhibition 10 ug/ml VZV
[3] = read-out: IC50 ug/ml HCMV, HCMV, human foreskin fibroblasts
[4] = Human alphaherpesvirus 3, read-out: % inhibition 10 ug/ml VZV, 10 ug/ml, VZV strain Ellen, HFF cells, ELISA
[5] = Human alphaherpesvirus 3, VZV strain Ellen, HFF cells, ELISA

SMILES | inhibition at 10 µg/mL (VZV strain Ellen; [2]) | IC50 (VZV strain Ellen; Human alphaherpesvirus 3, HFF) | IC50 [1, 3] | IC50 (HSV- I; Vero) | IC50 (HSV- I; HSV- I, Vero cells, ELISA) | inhibition at 10 µg/mL (VZV strain Ellen; [4]) | IC50 (VZV strain Ellen; [5]) | IC50 ([1]; read-out: IC50 ug/ml HCMV)
Nc1ccc(Cl)cc1NC(=S)Nc1ccc(NC(=O)c2ccccc2F)cc1 [Example 437, N-{4-[3-(2-Amino-5-chloro-phenyl)-thioureido]-phenyl}-2-fluoro-benzamide] | 0% | 8 µg/mL (≈ 19.3 µM) | > 10 µg/mL | 0.05 µg/mL (≈ 0.121 µM) |  |  |  | 
Nc1cc(Cl)cc(NC(=S)Nc2ccc(NC(=O)c3ccccc3F)cc2)c1 [Example 442, N-{4-[3-(3-Amino-5-chloro-phenyl)-thioureido]-phenyl}-2-fluoro-benzamide] | 81% | 8 µg/mL (≈ 19.3 µM) | 2 µg/mL (≈ 4.82 µM) |  | 1 µg/mL (≈ 2.41 µM) |  |  | 
CC(O)c1cccc(NC(=S)Nc2ccc(NC(=O)c3ccccc3F)cc2)c1 (stereo not shown) [Example 448, 2-Fluoro-N-(4-{3-[3-(1-hydroxy-ethyl)-phenyl]-thioureido}-phenyl)-benzamide] |  |  |  |  | > 10 µg/mL | 0% | > 10 µg/mL | 9 µg/mL (≈ 22 µM)
CC(C)c1cccc(NC(=S)Nc2ccc(NC(=O)c3ccccc3F)cc2)c1 [Example 452, 2-Fluoro-N-{4-[3-(3-isopropyl-phenyl)-thioureido]-phenyl}-benzamide] | 75% | 1 µg/mL (≈ 2.45 µM) | 2 µg/mL (≈ 4.91 µM) |  | 4 µg/mL (≈ 9.82 µM) |  |  | 
CN(C)c1cccc(NC(=S)Nc2ccc(NC(=O)c3ccccc3F)cc2)c1 [Example 454, N-{4-[3-(3-Dimethylamino-phenyl)-thioureido]-phenyl}-2-fluoro-benzamide] | 55% | > 10 µg/mL | 4 µg/mL (≈ 9.79 µM) |  | 1.5 µg/mL (≈ 3.67 µM) |  |  | 
COc1cc(C)c(Cl)cc1NC(=S)Nc1ccc(NC(=O)c2ccccc2F)cc1Cl [Example 458, N-{3-Chloro-4-[3-(5-chloro-2-methoxy-4-methyl-phenyl)-thioureido]-phenyl}-2-fluoro-benzamide] | 25% | > 10 µg/mL | > 10 µg/mL |  | 0.06 µg/mL (≈ 0.125 µM) |  |  | 
Cc1ccc(NC(=S)Nc2ccc(NC(=O)c3ccccc3F)cc2Cl)cc1Cl [Example 459, N-{3-Chloro-4-[3-(3-chloro-4-methyl-phenyl)-thioureido]-phenyl}-2-fluoro-benzamide] | 25% | > 10 µg/mL | > 10 µg/mL |  | 0.12 µg/mL (≈ 0.268 µM) |  |  | 
CSc1ccc(NC(=S)Nc2ccc(NC(=O)c3ccccc3F)cc2Cl)cc1Cl [Example 460, N-{3-Chloro-4-[3-(3-chloro-4-methylsulfanyl-phenyl)-thioureido]-phenyl}-2-fluoro-benzamide] | 50% | > 10 µg/mL | 2 µg/mL (≈ 4.16 µM) |  | 0.09 µg/mL (≈ 0.187 µM) |  |  | 
N#Cc1cccc(NC(=S)Nc2ccc(NC(=O)c3ccccc3F)cc2)c1 [Example 461, N-{4-[3-(3-Cyano-phenyl)-thioureido]-phenyl}-2-fluoro-benzamide] |  |  |  |  | > 10 µg/mL | 33% | > 10 µg/mL | > 10 µg/mL
NNC(=O)c1cccc(NC(=S)Nc2ccc(NC(=O)c3ccccc3F)cc2)c1 [Example 463, 2-Fluoro-N-{4-[3-(3-hydrazinocarbonyl-phenyl)-thioureido]-phenyl}-benzamide] |  |  |  |  | > 10 µg/mL | 19% | > 10 µg/mL | > 10 µg/mL
Nc1c(Cl)cccc1NC(=S)Nc1ccc(NC(=O)c2c(F)cccc2F)cc1 [Example 465, N-{4-[3-(2-Amino-3-chloro-phenyl)-thioureido]-phenyl}-2,6-difluoro-benzamide] | 31% | > 10 µg/mL | > 10 µg/mL |  | > 10 µg/mL |  |  | 
O=C(Nc1ccc(NC(=S)Nc2cccc(O)c2)cc1)c1ccccc1F [Example 475, 2-Fluoro-N-{4-[3-(3-hydroxy-phenyl)-thioureido]-phenyl}-benzamide] |  |  |  |  | 5 µg/mL (≈ 13.1 µM) | 28% | > 10 µg/mL | > 10 µg/mL
O=C(Nc1ccc(NC(=S)Nc2cccc(CO)c2)cc1)c1ccccc1F [Example 476, 2-Fluoro-N-{4-[3-(3-hydroxymethyl-phenyl)-thioureido]-phenyl}-benzamide] |  |  |  |  | 10 µg/mL (≈ 25.3 µM) | 21% | > 10 µg/mL | > 10 µg/mL
CC(=O)Nc1cccc(NC(=S)Nc2ccc(NC(=O)c3ccccc3F)cc2)c1 [Example 477, N-{4-[3-(3-Acetylamino-phenyl)-thioureido]-phenyl}-2-fluoro-benzamide] |  |  |  |  | > 10 µg/mL | 15% | > 10 µg/mL | > 10 µg/mL
O=C(Nc1ccc(NC(=S)Nc2ccc3scnc3c2)cc1)c1ccccc1F [Example 484, N-[4-(3-Benzothiazol-5-yl-thioureido)-phenyl]-2-fluoro-benzamide] | 28% | > 10 µg/mL | > 10 µg/mL |  | 0.4 µg/mL (≈ 0.947 µM) |  |  | 
COc1cccc(NC(=S)Nc2ccc(NC(=O)c3ccccc3F)cc2)c1 [Example 487, 2-Fluoro-N-{4-[3-(3-methoxy-phenyl)-thioureido]-phenyl}-benzamide] |  |  |  |  | 4 µg/mL (≈ 10.1 µM) | 48% | > 10 µg/mL | 10 µg/mL (≈ 25.3 µM)
CN(C)c1ccc(Cl)cc1NC(=S)Nc1ccc(NC(=O)c2ccccc2F)cc1 [Example 490, N-{4-[3-(5-Chloro-2-dimethylamino-phenyl)-thioureido]-phenyl}-2-fluoro-benzamide] | 68% | > 10 µg/mL | 2.5 µg/mL (≈ 5.64 µM) |  | 1 µg/mL (≈ 2.26 µM) |  |  | 
CC(N=[N+]=[N-])c1ccc(NC(=S)Nc2ccc(NC(=O)c3ccccc3F)cc2)cc1Cl (stereo not shown) [Example 492, N-(4-{3-[4-(1-Azido-ethyl)-3-chloro-phenyl]-thioureido}-phenyl)-2-fluoro-benzamide] | 32% | > 10 µg/mL | 2 µg/mL (≈ 4.26 µM) |  | > 10 µg/mL |  |  | 
O=C(Nc1ccc(NC(=S)Nc2ccc3[nH]cnc3c2)cc1)c1ccccc1F [Example 496, N-{4-[3-(1H-Benzoimidazol-5-yl)-thioureido]-phenyl}-2-fluoro-benzamide] |  |  |  |  | > 10 µg/mL | 25% | > 10 µg/mL | 10 µg/mL (≈ 24.7 µM)
Cc1nc2cc(NC(=S)Nc3ccc(NC(=O)c4ccccc4F)cc3)ccc2[nH]1 [Example 497, 2-Fluoro-N-{4-[3-(2-methyl-1H-benzoimidazol-5-yl)-thioureido]-phenyl}-benzamide] |  |  |  |  | > 10 µg/mL | 10% | > 10 µg/mL | 10 µg/mL (≈ 23.8 µM)
Nc1nccc(-c2ccc(NC(=S)Nc3ccc(NC(=O)c4ccccc4F)cc3)cc2Cl)n1 [Example 502, N-(4-{3-[4-(2-Amino-pyrimidin-4-yl)-3-chloro-phenyl]-thioureido}-phenyl)-2-fluoro-benzamide] | 13% | > 10 µg/mL | 1.8 µg/mL (≈ 3.65 µM) |  | > 10 µg/mL |  |  | 
CN(C)c1c(Cl)cccc1NC(=S)Nc1ccc(NC(=O)c2c(F)cccc2F)cc1 [Example 504, N-{4-[3-(3-Chloro-2-dimethylamino-phenyl)-thioureido]-phenyl}-2,6-difluoro-benzamide] | 99% | 4.5 µg/mL (≈ 9.76 µM) | 2 µg/mL (≈ 4.34 µM) |  | 6 µg/mL (≈ 13 µM) |  |  | 
O=C(Nc1ccc(NC(=S)NCc2cccc(Cl)c2)cc1)c1ccccc1F [Example 511, N-{4-[3-(3-Chloro-benzyl)-thioureido]-phenyl}-2-fluoro-benzamide] | 10% | > 10 µg/mL | > 10 µg/mL |  | > 10 µg/mL |  |  | 
O=C(Nc1ccc(NC(=S)Nc2cc(C(F)(F)F)cc(C(F)(F)F)c2)cc1)c1ccccc1F [Example 517, N-{4-[3-(3,5-Bis-trifluoromethyl-phenyl)-thioureido]-phenyl}-2-fluoro-benzamide] |  |  |  |  | > 10 µg/mL | 5% | > 10 µg/mL | 1.1 µg/mL (≈ 2.19 µM)
Nc1c(Cl)cc(NC(=S)Nc2ccc(NC(=O)c3ccccc3F)cc2)cc1Cl [Example 518, N-{4-[3-(4-Amino-3,5-dichloro-phenyl)-thioureido]-phenyl}-2-fluoro-benzamide] | 32% | > 10 µg/mL | 4 µg/mL (≈ 8.9 µM) |  | 0.25 µg/mL (≈ 0.556 µM) |  |  | 
Nc1c(Br)cc(NC(=S)Nc2ccc(NC(=O)c3ccccc3F)cc2)cc1Br [Example 519, N-{4-[3-(4-Amino-3,5-dibromo-phenyl)-thioureido]-phenyl}-2-fluoro-benzamide] |  |  |  |  | 0.4 µg/mL (≈ 0.743 µM) | 18% | > 10 µg/mL | 1.7 µg/mL (≈ 3.16 µM)
CN(C)c1cc(Cl)cc(NC(=S)Nc2ccc(NC(=O)c3ccccc3F)cc2)c1 [Example 523, N-{4-[3-(3-Chloro-5-dimethylamino-phenyl)-thioureido]-phenyl}-2-fluoro-benzamide] | 75% | 4 µg/mL (≈ 9.03 µM) | 3.2 µg/mL (≈ 7.22 µM) |  | 0.6 µg/mL (≈ 1.35 µM) |  |  | 
O=C(Nc1ccc(NC(=S)Nc2ccc3[nH]nnc3c2)cc1)c1c(F)cccc1F [Example 527, N-{4-[3-(1H-Benzotriazol-5-yl)-thioureido]-phenyl}-2,6-difluoro-benzamide] |  |  |  |  | > 10 µg/mL | 20% | > 10 µg/mL | > 10 µg/mL

— patent publication EP1137645B1, “ALPHA-METHYLBENZYL-CONTAINING THIOUREA INHIBITORS OF HERPES VIRUSES CONTAINING A […] GROUP” (Wyeth, priority 1998, dated 2000)
